Experimental data reported in patent publication US9777005B2 (Takeda Pharmaceutical Company Limited, priority 2012, dated 2017).

Molecular target: T1, human M1 receptor (hCHRM1) (Homo sapiens, UniProt P11229)
T1 construct: expressed in transfected cells; host or cells: CHO-K1
T1 sequence (P11229 1-460): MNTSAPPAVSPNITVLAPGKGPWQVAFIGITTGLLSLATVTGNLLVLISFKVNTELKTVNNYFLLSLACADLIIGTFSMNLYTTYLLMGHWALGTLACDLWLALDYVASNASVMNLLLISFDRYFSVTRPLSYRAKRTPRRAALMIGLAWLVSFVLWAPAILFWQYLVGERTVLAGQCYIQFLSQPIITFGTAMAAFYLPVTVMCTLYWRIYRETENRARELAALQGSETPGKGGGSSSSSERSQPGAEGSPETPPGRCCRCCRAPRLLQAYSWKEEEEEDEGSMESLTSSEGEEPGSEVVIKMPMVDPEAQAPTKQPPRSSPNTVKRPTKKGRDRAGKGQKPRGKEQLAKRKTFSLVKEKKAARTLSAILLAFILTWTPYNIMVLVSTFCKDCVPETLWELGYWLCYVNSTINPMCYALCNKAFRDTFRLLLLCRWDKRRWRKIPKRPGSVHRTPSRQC
Assay: Measurement of M1 receptor positive allosteric modulator (M1PAM) activity, calcium fluorescence (FLIPRtetra) in CHO-K1 cells in the presence of acetylcholine at EC20
Type: cell-based
Conditions: in the presence of acetylcholine at EC20 (final 0.6 nM), CHO-K1 cells expressing hCHRM1; for EC50: inflection point of M1PAM activity, read-out: IP value; for activity (%) at 10 μM: test compound 10 μM
Outline: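 CHO-K1 cells expressing human M1 were loaded with Fluo-4 AM, and compound was added with acetylcholine at EC20 (final 0.6 nM). Calcium fluorescence was read on FLIPRtetra for 1 min. Activity was normalized to 1 μM acetylcholine (100%) and DMSO (0%), and the curve inflection point was reported as IP.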

| SMILES | EC50 [µM] | activity (%) at 10 μM [%] |
| --- | --- | --- |
| CCn1cc(-c2ccc(CN3Cc4ncnc(OC5CCC5)c4C3=O)cc2)cn1 [Example 324, 4-(cyclobutyloxy)-6-(4-(1-ethyl-1H-pyrazol-4-yl)benzyl)-6,7-dihydro-5H-pyrrolo[3,4-d]pyrimidin-5-one] | 0.019 | 99 |
| Cn1cc(-c2ccc(CN3Cc4cccc(OCCN5CCCCC5)c4C3=O)cc2)cn1 [Example 21, 2-(4-(1-methyl-1H-pyrazol-4-yl)benzyl)-7-(2-(piperidin-1-yl)ethoxy)isoindolin-1-one] | 0.096 | 105 |
| Cn1cc(-c2ccc(CN3Cc4ccnc(OC5CCC5)c4C3=O)cc2)cn1 [Example 348, 4-(cyclobutyloxy)-2-(4-(1-methyl-1H-pyrazol-4-yl)benzyl)-1,2-dihydro-3H-pyrrolo[3,4-c]pyridin-3-one] | 0.074 | 97 |
| Cn1cc(-c2ccc(CN3Cc4ccnc(OCc5ccccc5F)c4C3=O)cc2)nn1 [Example 332, 4-((2-fluorobenzyl)oxy)-2-(4-(1-methyl-1H-1,2,3-triazol-4-yl)benzyl)-1,2-dihydro-3H-pyrrolo[3,4-c]pyridin-3-one] | 0.017 | 106 |
| Cc1nn(C)cc1-c1ccc(CN2Cc3ccnc(OCc4ccccc4F)c3C2=O)c(F)c1 [Example 343, 2-(4-(1,3-dimethyl-1H-pyrazol-4-yl)-2-fluorobenzyl)-4-((2-fluorobenzyl)oxy)-1,2-dihydro-3H-pyrrolo[3,4-c]pyridin-3-one] | 0.029 | 94 |
| Cn1cc(-c2ccc(CN3Cc4cccc(OC[C@H]5CCCO5)c4C3=O)cc2)cn1 [Example 13, 2-(4-(1-methyl-1H-pyrazol-4-yl)benzyl)-7-((2R)-(tetrahydrofuran-2-yl)methoxy)isoindolin-1-one] | 0.043 | 102 |
| O=C1c2c(cccc2O[C@@H]2CCOC[C@H]2O)CN1Cc1c(F)cc(F)cc1F (single isomer, unassigned) [Example 318, 1,5-anhydro-2-deoxy-3-O-(3-oxo-2-(2,4,6-trifluorobenzyl)-2,3-dihydro-1H-isoindol-4-yl)-threo-pentitol] | 0.026 | 99 |
| O=C1c2c(ccnc2OCC2CCCO2)CN1Cc1ccc(-c2cnn3ccccc23)cc1 (stereo not shown) [Example 289, 2-(4-(pyrazolo[1,5-a]pyridin-3-yl)benzyl)-4-((tetrahydrofuran-2-yl)methoxy)-1,2-dihydro-3H-pyrrolo[3,4-c]pyridin-3-one] | 0.0047 | 89 |
| O=C1c2c(O[C@@H]3CCCC[C@H]3O)ccc(F)c2CN1Cc1ccc(-n2cccn2)cc1 (relative stereo) [Example 223, 4-fluoro-7-((trans-2-hydroxycyclohexyl)oxy)-2-(4-(1H-pyrazol-1-yl)benzyl)isoindolin-1-one] | 0.019 | 103 |
| COCc1ccc(F)c(Oc2nccc3c2C(=O)N(Cc2ccc(-c4cnn(C)c4)cc2)C3)c1 [Example 302, 4-(2-fluoro-5-(methoxymethyl)phenoxy)-2-(4-(1-methyl-1H-pyrazol-4-yl)benzyl)-1,2-dihydro-3H-pyrrolo[3,4-c]pyridin-3-one] | 0.032 | 92 |
| O=C1c2c(cccc2O[C@H]2CCCC[C@@H]2O)CN1Cc1ccc(-c2ccnn2C2CCCCO2)cc1 (relative stereo) [Example 30, 7-((trans-2-hydroxycyclohexyl)oxy)-2-(4-(1-(tetrahydro-2H-pyran-2-yl)-1H-pyrazol-5-yl)benzyl)isoindolin-1-one] | 0.19 | 104 |
| Cn1ccc(-c2cc(F)c(CN3Cc4ccnc(O[C@H]5CCC[C@@H]5O)c4C3=O)c(F)c2)n1 (relative stereo) [Example 328, 2-(2,6-difluoro-4-(1-methyl-1H-pyrazol-3-yl)benzyl)-4-((trans-2-hydroxycyclopentyl)oxy)-1,2-dihydro-3H-pyrrolo[3,4-c]pyridin-3-one] | 0.0064 | 97 |
| Cn1cc(-c2ccc(CN3Cc4cccc(OCC5CCCO5)c4C3=O)c(F)c2)nn1 (stereo not shown) [Example 330, 2-(2-fluoro-4-(1-methyl-1H-1,2,3-triazol-4-yl)benzyl)-7-((tetrahydrofuran-2-yl)methoxy)isoindolin-1-one] | 0.03 | 104 |
| Cn1cc(-c2ccc(CN3Cc4nccc(OCC5CCCO5)c4C3=O)cc2)cn1 (stereo not shown) [Example 59, 6-(4-(1-methyl-1H-pyrazol-4-yl)benzyl)-4-((tetrahydrofuran-2-yl)methoxy)-6,7-dihydro-5H-pyrrolo[3,4-b]pyridin-5-one] | 0.057 | 136 |

More lines, now with the values ahead:

| EC50 [µM] | activity (%) at 10 μM [%] | SMILES |
| --- | --- | --- |
| 0.0046 | 104 | Cc1nn(C)cc1-c1ccc(CN2Cc3ccnc(O[C@H]4CCCC[C@@H]4O)c3C2=O)s1 (relative stereo) [Example 402, 2-((5-(1,3-dimethyl-1H-pyrazol-4-yl)-2-thienyl)methyl)-4-((trans-2-hydroxycyclohexyl)oxy)-1,2-dihydro-3H-pyrrolo[3,4-c]pyridin-3-one] |
| 0.016 | 96 | Cc1cc(C#N)cc(F)c1Oc1nccc2c1C(=O)N(Cc1ccc(-c3ccn(C)n3)cc1)C2 [Example 417, 3-fluoro-5-methyl-4-((2-(4-(1-methyl-1H-pyrazol-3-yl)benzyl)-3-oxo-2,3-dihydro-1H-pyrrolo[3,4-c]pyridin-4-yl)oxy)benzonitrile] |
| 0.0068 | 103 | CNC(=O)c1ccc(CN2Cc3ccnc(Oc4ccc(C(F)(F)F)cc4F)c3C2=O)cc1 [Example 431, 4-((4-(2-fluoro-4-(trifluoromethyl)phenoxy)-3-oxo-1,3-dihydro-2H-pyrrolo[3,4-c]pyridin-2-yl)methyl)-N-methylbenzamide] |
| 0.0043 | 95 | Cc1cc(-c2ccc(CN3Cc4cccc(O[C@H]5CCCC[C@@H]5O)c4C3=O)cc2)cnn1 (relative stereo) [Example 355, 7-((trans-2-hydroxycyclohexyl)oxy)-2-(4-(6-methylpyridazin-4-yl)benzyl)isoindolin-1-one] |
| 0.042 | 104 | Cn1ccc(-c2ccc(CN3Cc4ncnc(Oc5c(F)cc(F)cc5F)c4C3=O)cc2)n1 [Example 366, 6-(4-(1-methyl-1H-pyrazol-3-yl)benzyl)-4-(2,4,6-trifluorophenoxy)-6,7-dihydro-5H-pyrrolo[3,4-d]pyrimidin-5-one] |
| 0.013 | 98 | Cn1ccc(-c2ccc(CN3Cc4ccnc(Oc5ccc(C(F)(F)F)cc5C#N)c4C3=O)cc2)n1 [Example 416, 2-((2-(4-(1-methyl-1H-pyrazol-3-yl)benzyl)-3-oxo-2,3-dihydro-1H-pyrrolo[3,4-c]pyridin-4-yl)oxy)-5-(trifluoromethyl)benzonitrile] |
| 0.0071 | 102 | Cn1ccc(-c2ccc(CN3Cc4ccnc(Oc5c(F)cc(C#N)cc5F)c4C3=O)c(F)c2)n1 [Example 387, 3,5-difluoro-4-((2-(2-fluoro-4-(1-methyl-1H-pyrazol-3-yl)benzyl)-3-oxo-2,3-dihydro-1H-pyrrolo[3,4-c]pyridin-4-yl)oxy)benzonitrile] |
| 0.008 | 101 | Cc1nn(C)cc1-c1ccc(CN2Cc3ccnc(Oc4ccc(C(C)(C)O)cc4F)c3C2=O)cc1 [Example 412, 2-(4-(1,3-dimethyl-1H-pyrazol-4-yl)benzyl)-4-(2-fluoro-4-(2-hydroxypropan-2-yl)phenoxy)-1,2-dihydro-3H-pyrrolo[3,4-c]pyridin-3-one] |
| 0.014 | 90 | Cc1cc(-c2ccc(CN3Cc4ccnc(Oc5ccc(C(F)F)cc5F)c4C3=O)cc2)ccn1 [Example 379, 4-(4-(difluoromethyl)-2-fluorophenoxy)-2-(4-(2-methylpyridin-4-yl)benzyl)-1,2-dihydro-3H-pyrrolo[3,4-c]pyridin-3-one] |
| 0.011 | 105 | CCCc1ccc(Oc2nccc3c2C(=O)N(Cc2ccc(C(=O)NC)cc2)C3)c(F)c1 [Example 451, 4-((4-(2-fluoro-4-propylphenoxy)-3-oxo-1,3-dihydro-2H-pyrrolo[3,4-c]pyridin-2-yl)methyl)-N-methylbenzamide] |
| 0.02 | 99 | Cc1cc(-c2ccc(CN3Cc4cccc(Oc5c(F)cc(C#N)cc5F)c4C3=O)cc2)cnn1 [Example 398, 3,5-difluoro-4-((2-(4-(6-methylpyridazin-4-yl)benzyl)-3-oxo-2,3-dihydro-1H-isoindol-4-yl)oxy)benzonitrile] |
| 0.0088 | 102 | C[C@@H](O)[C@@H](C)Oc1nccc2c1C(=O)N(Cc1ccc(-c3ccn(C)n3)cc1)C2 [Example 426, 4-(((2R,3R)-3-hydroxybutan-2-yl)oxy)-2-(4-(1-methyl-1H-pyrazol-3-yl)benzyl)-1,2-dihydro-3H-pyrrolo[3,4-c]pyridin-3-one] |
